In ChEMBL document CHEMBL5696443 (Clin Cancer Res, 2016):
Activity calls are given as the source filed them. No cut-off for these calls is given here.

Tests used:
[1] = test system: EML4-ALK (Homo sapiens), Q9UM73+Q9HC35 [I1171N]; details: BaF3, time 3-5 weeks
[2] = molecular target: Serine/threonine-protein kinase TAO2 (Homo sapiens) (UniProt Q9UL54); assay: Inhibition of human TAOK2 at 1 uM using MBP as substrate in presence of [gamma33P]-ATP by HotSpot assay relative to control
[3] = molecular target: Tyrosine-protein kinase ABL1 (Homo sapiens, UniProt P00519, Q252H); assay: Inhibition of human ABL1 Q252H mutant using EAIYAAPFAKKK as substrate in presence of [gamma33P]-ATP by HotSpot assay
[4] = molecular target: cGMP-dependent protein kinase 1 (Homo sapiens, UniProt Q13976); assay: Inhibition of human PRKG1 using LRRASLG as substrate in presence of [gamma33P]-ATP by HotSpot assay
[5] = molecular target: Serine/threonine-protein kinase TAO3 (Homo sapiens) (UniProt Q9H2K8); assay: Inhibition of human TAOK3 at 1 uM using MBP as substrate in presence of [gamma33P]-ATP by HotSpot assay relative to control
[6] = molecular target: Dual specificity tyrosine-phosphorylation-regulated kinase 2 (Homo sapiens) (UniProt Q92630); assay: Inhibition of human DYRK2 at 1 uM using RRRFRPASPLRGPPK as substrate in presence of [gamma33P]-ATP by HotSpot assay relative to control
Dual specificity tyrosine-phosphorylation-regulated kinase 2 (Homo sapiens), sequence (Q92630 whole entry): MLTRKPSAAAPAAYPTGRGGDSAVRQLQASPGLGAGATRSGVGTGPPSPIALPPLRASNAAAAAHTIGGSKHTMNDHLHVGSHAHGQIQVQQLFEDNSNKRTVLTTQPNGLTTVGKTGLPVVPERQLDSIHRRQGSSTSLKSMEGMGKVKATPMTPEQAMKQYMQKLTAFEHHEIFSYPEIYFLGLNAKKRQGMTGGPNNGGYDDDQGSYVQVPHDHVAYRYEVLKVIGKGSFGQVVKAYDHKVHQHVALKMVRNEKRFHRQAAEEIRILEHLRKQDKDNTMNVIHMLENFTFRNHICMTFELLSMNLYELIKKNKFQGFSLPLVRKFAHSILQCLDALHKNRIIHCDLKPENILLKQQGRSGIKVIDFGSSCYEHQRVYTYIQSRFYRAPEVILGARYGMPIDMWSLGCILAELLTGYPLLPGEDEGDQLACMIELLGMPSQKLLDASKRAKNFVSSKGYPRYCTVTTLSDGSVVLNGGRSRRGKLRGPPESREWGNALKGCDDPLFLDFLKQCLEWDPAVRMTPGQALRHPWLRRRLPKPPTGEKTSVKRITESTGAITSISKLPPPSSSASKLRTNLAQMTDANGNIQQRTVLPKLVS

[7] = molecular target: CDK9/Cyclin K (Homo sapiens) (UniProt P50750+O75909); assay: Inhibition of human CDK9/CyclinK at 1 uM using KTFCGTPEYLAPEVRREPRILSEEEQEMFRDFDYIADWC as substrate in presence of [gamma33P]-ATP by HotSpot assay relative to control; assay type: protein-complex assay
[8] = molecular target: Tyrosine-protein kinase Blk (Homo sapiens, UniProt P51451); assay: Inhibition of human BLK using poly (Glu, Tyr)4:1 as substrate in presence of [gamma33P]-ATP by HotSpot assay
Tyrosine-protein kinase Blk, sequence (P51451 whole entry): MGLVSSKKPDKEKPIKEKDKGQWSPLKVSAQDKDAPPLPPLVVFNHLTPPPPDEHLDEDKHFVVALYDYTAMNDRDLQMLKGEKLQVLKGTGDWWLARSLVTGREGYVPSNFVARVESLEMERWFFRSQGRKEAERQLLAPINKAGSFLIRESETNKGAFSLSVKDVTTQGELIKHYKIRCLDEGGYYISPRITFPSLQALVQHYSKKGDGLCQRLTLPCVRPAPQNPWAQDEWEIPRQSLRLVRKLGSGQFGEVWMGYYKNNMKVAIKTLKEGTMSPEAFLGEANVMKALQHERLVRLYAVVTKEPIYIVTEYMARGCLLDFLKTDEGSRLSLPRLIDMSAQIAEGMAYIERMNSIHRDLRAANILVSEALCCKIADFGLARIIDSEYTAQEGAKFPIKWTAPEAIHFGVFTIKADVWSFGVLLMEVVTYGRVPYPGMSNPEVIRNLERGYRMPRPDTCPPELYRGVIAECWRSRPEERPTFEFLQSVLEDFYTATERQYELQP

[9] = molecular target: Serine/threonine-protein kinase 26 (Homo sapiens) (UniProt Q9P289); assay: Inhibition of human STK26 at 1 uM using MBP as substrate in presence of [gamma33P]-ATP by HotSpot assay relative to control
Serine/threonine-protein kinase 26 (Homo sapiens), sequence (Q9P289 2-416 limits assumed): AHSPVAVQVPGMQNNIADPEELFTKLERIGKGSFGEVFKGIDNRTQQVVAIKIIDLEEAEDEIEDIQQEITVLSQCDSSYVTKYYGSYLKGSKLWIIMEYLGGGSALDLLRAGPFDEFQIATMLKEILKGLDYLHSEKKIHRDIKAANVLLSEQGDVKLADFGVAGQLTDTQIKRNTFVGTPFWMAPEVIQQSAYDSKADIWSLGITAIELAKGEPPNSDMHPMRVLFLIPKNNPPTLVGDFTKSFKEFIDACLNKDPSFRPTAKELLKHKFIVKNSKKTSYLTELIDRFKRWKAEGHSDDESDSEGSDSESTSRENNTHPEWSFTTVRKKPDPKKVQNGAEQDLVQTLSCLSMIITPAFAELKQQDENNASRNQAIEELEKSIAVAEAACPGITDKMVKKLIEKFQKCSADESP

[10] = molecular target: SRSF protein kinase 3 (Homo sapiens) (UniProt Q9UPE1); assay: Inhibition of human SRPK3 at 1 uM using GRSRSRSRSR as substrate in presence of [gamma33P]-ATP by HotSpot assay relative to control
SRSF protein kinase 3 (Homo sapiens), sequence (Q9UPE1 whole entry): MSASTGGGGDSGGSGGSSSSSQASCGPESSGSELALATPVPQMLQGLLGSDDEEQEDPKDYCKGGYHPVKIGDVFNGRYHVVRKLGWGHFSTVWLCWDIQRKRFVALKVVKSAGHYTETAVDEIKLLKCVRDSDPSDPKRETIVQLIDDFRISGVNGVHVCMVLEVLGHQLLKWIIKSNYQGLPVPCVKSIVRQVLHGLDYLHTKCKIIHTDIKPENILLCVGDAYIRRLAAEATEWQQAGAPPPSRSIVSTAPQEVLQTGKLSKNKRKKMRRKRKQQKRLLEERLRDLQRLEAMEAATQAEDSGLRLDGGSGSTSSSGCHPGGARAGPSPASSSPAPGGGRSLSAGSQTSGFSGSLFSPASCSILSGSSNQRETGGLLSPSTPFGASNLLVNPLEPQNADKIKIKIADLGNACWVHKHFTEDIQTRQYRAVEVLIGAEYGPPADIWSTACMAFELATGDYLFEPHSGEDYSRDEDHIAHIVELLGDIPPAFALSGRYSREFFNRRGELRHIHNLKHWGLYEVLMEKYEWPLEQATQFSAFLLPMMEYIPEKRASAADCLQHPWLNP

U-937 = details: time 72 hrs
[11] = molecular target: Serine/threonine-protein kinase 24 (Homo sapiens) (UniProt Q9Y6E0); assay: Inhibition of human STK24 at 1 uM using MBP as substrate in presence of [gamma33P]-ATP by HotSpot assay relative to control
Serine/threonine-protein kinase 24 (Homo sapiens), sequence (Q9Y6E0 whole entry, looked up): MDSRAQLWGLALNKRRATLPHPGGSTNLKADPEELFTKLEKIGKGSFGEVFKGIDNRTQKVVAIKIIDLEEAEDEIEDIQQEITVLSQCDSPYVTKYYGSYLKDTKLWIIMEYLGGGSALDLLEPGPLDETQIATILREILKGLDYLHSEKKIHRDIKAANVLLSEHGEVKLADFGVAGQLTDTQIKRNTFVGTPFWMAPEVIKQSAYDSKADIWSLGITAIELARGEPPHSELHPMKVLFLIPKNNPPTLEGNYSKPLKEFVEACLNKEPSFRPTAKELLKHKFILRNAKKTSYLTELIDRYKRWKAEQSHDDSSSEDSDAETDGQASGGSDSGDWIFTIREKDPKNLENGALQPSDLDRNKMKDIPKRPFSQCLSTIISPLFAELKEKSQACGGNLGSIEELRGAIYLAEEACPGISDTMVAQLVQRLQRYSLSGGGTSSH

[12] = molecular target: Protein kinase C alpha type (Homo sapiens) (UniProt P17252); assay: Inhibition of human PRKCA at 1 uM using ERMRPRKRQGSVRRRV as substrate in presence of [gamma33P]-ATP by HotSpot assay relative to control
[13] = molecular target: Tyrosine-protein kinase Lyn (Homo sapiens, UniProt P07948); assay: Inhibition of human LYNB at 1 uM using poly (Glu, Tyr)4:1 as substrate in presence of [gamma33P]-ATP by HotSpot assay relative to control
[14] = molecular target: TGF-beta receptor type-2 (Homo sapiens) (UniProt P37173); assay: Inhibition of human TGFBR2 at 1 uM using MBP as substrate in presence of [gamma33P]-ATP by HotSpot assay relative to control
[15] = test system: EML4-ALK (Homo sapiens), Q9UM73+Q9HC35 [F1174C]; details: BaF3, time 3-5 weeks
[16] = molecular target: Serine/threonine-protein kinase MARK1 (Homo sapiens, UniProt Q9P0L2); assay: Inhibition of human MARK1 using KKKVSRSGLYRSPSMPENLNRPR as substrate in presence of [gamma33P]-ATP by HotSpot assay
[17] = molecular target: Tyrosine-protein kinase ZAP-70 (Homo sapiens) (UniProt P43403); assay: Inhibition of human ZAP70 at 1 uM using MBP as substrate in presence of [gamma33P]-ATP by HotSpot assay relative to control
[18] = Average plasma concentration in human at 180 mg administered once a day; assay type: ADME; details: in vivo
in vitro = details: mouse, BaF3 cells
[19] = test system: EML4-ALK (Homo sapiens), Q9UM73+Q9HC35 [I1171N]; details: BaF3, dose 750.0 nmol/L, time 3-5 weeks
Ephrin type-A receptor 1 = Ephrin type-A receptor 1 (Homo sapiens, UniProt P21709); assay: Inhibition of human EPHA1 using poly (Glu, Tyr)4:1 as substrate in presence of [gamma33P]-ATP by HotSpot assay
[20] = molecular target: CDK6/cyclin D3 (Homo sapiens) (UniProt P30281+Q00534); assay: Inhibition of human CDK6/CyclinD3 at 1 uM using RB protein as substrate in presence of [gamma33P]-ATP by HotSpot assay relative to control; assay type: protein-complex assay
[21] = test system: Epidermal growth factor receptor (Homo sapiens), P00533 [L858R,T790M]; details: BaF3, time 72.0 hrs
[22] = test system: EML4-ALK (Homo sapiens), Q9UM73+Q9HC35 [L1152R]; details: BaF3, dose 500.0 nmol/L, time 3-5 weeks
[23] = molecular target: Serine/threonine-protein kinase 17A (Homo sapiens) (UniProt Q9UEE5); assay: Inhibition of human STK17A at 1 uM using KKLNRTLSFAEPG as substrate in presence of [gamma33P]-ATP by HotSpot assay relative to control
Serine/threonine-protein kinase 17A (Homo sapiens), sequence (Q9UEE5 whole entry): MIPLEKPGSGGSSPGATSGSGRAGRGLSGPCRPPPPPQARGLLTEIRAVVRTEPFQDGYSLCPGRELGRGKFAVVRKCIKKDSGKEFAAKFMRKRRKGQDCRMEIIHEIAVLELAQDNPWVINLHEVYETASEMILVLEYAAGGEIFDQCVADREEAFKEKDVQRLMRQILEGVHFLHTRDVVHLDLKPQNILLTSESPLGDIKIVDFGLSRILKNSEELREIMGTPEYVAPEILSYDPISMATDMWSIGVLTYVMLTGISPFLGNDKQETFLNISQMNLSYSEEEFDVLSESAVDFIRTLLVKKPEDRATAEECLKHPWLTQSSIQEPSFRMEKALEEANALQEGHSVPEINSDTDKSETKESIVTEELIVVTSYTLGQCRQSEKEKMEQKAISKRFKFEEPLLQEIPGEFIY

[24] = molecular target: Mitogen-activated protein kinase 12 (Homo sapiens) (UniProt P53778); assay: Inhibition of human P38gamma at 1 uM using MBP as substrate in presence of [gamma33P]-ATP by HotSpot assay relative to control
[25] = molecular target: Calcium/calmodulin-dependent protein kinase type 1D (Homo sapiens) (UniProt Q8IU85); assay: Inhibition of human CAMK1D at 1 uM using KKALRRQETVDAL as substrate in presence of [gamma33P]-ATP by HotSpot assay relative to control
[26] = molecular target: MAP kinase-activated protein kinase 2 (Homo sapiens) (UniProt P49137); assay: Inhibition of human MAPKAPK2 at 1 uM using KKLNRTLSVA as substrate in presence of [gamma33P]-ATP by HotSpot assay relative to control
[27] = molecular target: MAP kinase-activated protein kinase 3 (Homo sapiens) (UniProt Q16644); assay: Inhibition of human MAPKAPK3 at 1 uM using KKLNRTLSVA as substrate in presence of [gamma33P]-ATP by HotSpot assay relative to control

Serine/threonine-protein kinase TAO2 (Homo sapiens), sequence (Q9UL54 whole entry): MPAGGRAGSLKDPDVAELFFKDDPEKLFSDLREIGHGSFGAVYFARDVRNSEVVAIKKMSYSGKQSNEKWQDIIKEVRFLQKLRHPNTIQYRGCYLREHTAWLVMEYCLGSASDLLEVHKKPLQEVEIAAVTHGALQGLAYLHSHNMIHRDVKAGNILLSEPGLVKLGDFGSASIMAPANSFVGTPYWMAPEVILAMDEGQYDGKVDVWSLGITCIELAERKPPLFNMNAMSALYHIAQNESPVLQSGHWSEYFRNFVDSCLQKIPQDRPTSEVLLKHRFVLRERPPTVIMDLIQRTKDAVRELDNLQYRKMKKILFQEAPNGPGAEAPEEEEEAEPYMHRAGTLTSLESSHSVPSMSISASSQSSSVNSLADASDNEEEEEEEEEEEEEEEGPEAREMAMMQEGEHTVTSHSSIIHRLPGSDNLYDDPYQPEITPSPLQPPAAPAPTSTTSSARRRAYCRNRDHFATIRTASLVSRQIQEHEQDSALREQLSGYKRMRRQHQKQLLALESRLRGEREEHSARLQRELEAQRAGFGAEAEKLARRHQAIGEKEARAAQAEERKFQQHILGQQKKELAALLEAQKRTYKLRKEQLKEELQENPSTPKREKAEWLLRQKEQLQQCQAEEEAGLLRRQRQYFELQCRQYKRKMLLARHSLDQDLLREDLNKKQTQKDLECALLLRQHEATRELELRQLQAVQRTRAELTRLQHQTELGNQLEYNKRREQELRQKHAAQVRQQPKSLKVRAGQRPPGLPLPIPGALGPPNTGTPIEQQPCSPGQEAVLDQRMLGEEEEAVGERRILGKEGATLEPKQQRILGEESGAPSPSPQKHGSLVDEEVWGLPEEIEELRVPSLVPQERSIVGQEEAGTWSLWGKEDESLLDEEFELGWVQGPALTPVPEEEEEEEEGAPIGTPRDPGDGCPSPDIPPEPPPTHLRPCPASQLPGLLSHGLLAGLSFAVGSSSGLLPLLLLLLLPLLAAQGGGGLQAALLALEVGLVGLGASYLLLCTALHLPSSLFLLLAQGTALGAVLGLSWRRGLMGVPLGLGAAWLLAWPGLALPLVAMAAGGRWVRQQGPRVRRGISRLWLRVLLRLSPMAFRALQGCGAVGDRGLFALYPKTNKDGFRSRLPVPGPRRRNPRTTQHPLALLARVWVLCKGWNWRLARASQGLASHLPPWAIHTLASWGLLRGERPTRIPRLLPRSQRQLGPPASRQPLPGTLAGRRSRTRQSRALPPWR

## COc1cc(N2CCC(N3CCN(C)CC3)CC2)ccc1Nc1ncc(Cl)c(Nc2ccccc2P(C)(C)=O)n1 [BRIGATINIB]
[1]
  IC90: 278 nM
[2]
  inhibition: < 90%
[3]
  IC50: 171 nM
[4]
  IC50: > 1000 nM
[5]
  inhibition: < 90%
[6]
  inhibition: < 90%
[7]
  inhibition: < 90%
[8]
  IC50: 136 nM
[9]
  inhibition: < 90%
[10]
  inhibition: < 90%
U-937
  GI50: 2390 nM
[11]
  inhibition: < 90%
[12]
  inhibition: < 90%
[13]
  inhibition: < 90%
[14]
  inhibition: < 90%
[15]
  IC90: 160 nM
[16]
  IC50: 127 nM
[17]
  inhibition: < 90%
[18]
  Cave: 1447 nM
In vitro
  IC50: 3210 nM
  IC90: 9500 nM
[19]
  inhibition: Active
Ephrin type-A receptor 1
  IC50: > 1000 nM
[20]
  inhibition: < 90%
[21]
  IC90: 2970 nM
[22]
  inhibition: Active
[23]
  inhibition: < 90%
[24]
  inhibition: < 90%
[25]
  inhibition: < 90%
[26]
  inhibition: < 90%
[27]
  inhibition: < 90%
